The record followed here is US20170349550A1, “ACTIVE COMPOUND COMBINATIONS” (BAYER CROPSCIENCE AKTIENGESELLSCHAFT, priority 2014, published 2017).

Experiment [1] has as its system Blumeria graminis f.sp. hordei. Briefly: in vivo preventive Blumeria test (barley). Conditions: 7 days after inoculation.
Another experiment has as its system Fusarium graminearum. In kind it is in vivo. As to conditions: barley, 5 days after inoculation.
Experiment [2] has as its system Fusarium nivale (var. majus). Put plainly: in vivo preventive Fusarium nivale (var. majus) test (wheat). As to conditions: 5 days after inoculation. The method, then: After the spray coating has been dried, the plants are slightly injured by using a sandblast and afterwards they are sprayed with a conidia suspension of Fusarium nivale (var. majus). The plants are placed in the greenhouse under a translucent incubation cabinet at a temperature of approximately 10° C. and a relative atmospheric humidity of approximately 100%.
The test is evaluated 5 days after the inoculation.

Another experiment has as its system Leptosphaeria nodorum. Briefly: in vivo preventive Leptosphaeria nodorum test (wheat). As to conditions: 8 days after inoculation. The method, then: After the spray coating has been dried, the plants are sprayed with a spore suspension of Leptosphaeria nodorum. […] The plants are placed in the greenhouse at a temperature of approximately 25° C. and a relative atmospheric humidity of approximately 80%.
(§1) The test is evaluated 8 days after the inoculation.

The next experiment relates to Puccinia triticina. Briefly: in vivo preventive Puccinia triticina test (wheat). As to conditions: 8 days after inoculation. The method, then: After the spray coating has been dried, the plants are sprayed with a spore suspension of Puccinia triticina.
as §1

Another experiment has as its system Septoria tritici. Put plainly: in vivo preventive Septoria tritici test (wheat). Conditions: 21 days after inoculation. On the procedure: After the spray coating has been dried, the plants are sprayed with a spore suspension of Septoria tritici. […] The plants are placed in the greenhouse at a temperature of approximately 15° C. and a relative atmospheric humidity of approximately 80%.
The test is evaluated 21 days after the inoculation.

The test system of the next experiment is Alternaria solani. Put plainly: in vivo preventive test on Alternaria test (tomatoes). As to conditions: 3 days after inoculation. The method, then: After the spray coating has dried on, the plants are inoculated with an aqueous spore suspension of Alternaria solani.
The test is evaluated 3 days after the inoculation.

In a further experiment the test system is Phakopsora pachyrhizi. Put plainly: in vivo preventive test on Phakopsora test (soybeans). Conditions: 7 days after inoculation. The method, then: After the spray coating has dried on, the plants are inoculated with an aqueous spore suspension of the causal agent of soybean rust (Phakopsora pachyrhizi) and stay for 24 h without light in an incubation cabinet at approximately 24° C. and a relative atmospheric humidity of 95%. The plants remain in the incubation cabinet at approximately 24° C. and a relative atmospheric humidity of approximately 80% and a day/night interval of 12 h.
(§2) The test is evaluated 7 days after the inoculation.

In a further experiment the test system is Sphaerotheca fuliginea. Put plainly: in vivo preventive test on Sphaerotheca test (cucumbers). As to conditions: 7 days after inoculation. The method, then: After the spray coating has dried on, the plants are inoculated with an aqueous spore suspension of Sphaerotheca fuliginea. The plants are then placed in a greenhouse at approximately 23° C. and a relative atmospheric humidity of approximately 70%.
as §2

The subject of a further experiment is Venturia inaequalis. Briefly: in vivo preventive test on Venturia test (apples). As to conditions: 10 days after inoculation. On the procedure: The plants are then placed in a greenhouse at approximately 21° C. and a relative atmospheric humidity of approximately 90%.
The test is evaluated 10 days after the inoculation.

In another experiment the test system is Botrytis cinerea. Briefly: in vivo preventive test on Botrytis test (beans). As to conditions: size of lesions 2 days after inoculation.
Another experiment relates to Uromyces appendiculatus. Put plainly: in vivo preventive test on Uromyces test (beans). As to conditions: 10 days after inoculation. The method, then:
The plants are then placed in a greenhouse at approximately 21° C. and a relative atmospheric humidity of approximately 90%. The test is evaluated 10 days after the inoculation.

The subject of another experiment is Pyrenophora teres. Briefly: in vivo preventive Pyrenophora teres test (barley). As to conditions: 8 days after inoculation. The method, then:
After the spray coating has been dried, the plants are sprayed with a spore suspension of Pyrenophora teres.
as §1

Where “and” joins values, the source holds several entries; their conditions need not be identical. Identical values can stand only once. Like-named read-outs stand apart in the source and are kept apart here.

Experimental for Botrytis cinerea: Solvent: 24.5 parts by weight of acetone • 24.5 parts by weight of dimethylacetamide Emulsifier: 1 part by weight of alkylaryl polyglycol ether
After the spray coating has dried on, 2 small pieces of agar covered with growth of Botrytis cinerea are placed on each leaf. The inoculated plants are placed in a darkened chamber at 20° C. and a relative atmospheric humidity of 100%.
2 days after the inoculation, the size of the lesions on the leaves is evaluated.

Turning to `Fc1ccc([C@]2(Cn3cncn3)O[C@H]2c2ccccc2Cl)cc1` (racemic) [1.12, epoxiconazole], the “Efficacy in % found” value is 14% in experiment [1] (12.5 ppm a.i.); 30% in experiment [1] (25 ppm a.i.); 0% in the experiment on Fusarium graminearum (50 ppm a.i.); 13% in experiment [2] (12.5 ppm a.i.); 43% with Leptosphaeria nodorum (25 ppm a.i.); 57% in the experiment with Leptosphaeria nodorum (50 ppm a.i.). The “Efficacy in % found” value with Puccinia triticina (25 ppm a.i.) is 40%; with Septoria tritici (25 ppm a.i.) it was 0%; with Septoria tritici (50 ppm a.i.), 63% and 33%.
Take `OC(Cn1cncn1)(c1ccc(F)cc1)c1ccccc1F` (centres unmarked) [1.22, flutriafol]: the “Efficacy in % found” value in the experiment on Alternaria solani (0.25 ppm a.i.) is reported as 0%; in the experiment on Alternaria solani (0.5 ppm a.i.), 0%; in the experiment on Alternaria solani (1 ppm a.i.), 0%; with Phakopsora pachyrhizi (0.25 ppm a.i.), 0%; in the experiment on Phakopsora pachyrhizi (1 ppm a.i.) it was 0%; in the experiment on Sphaerotheca fuliginea (1 ppm a.i.) it was 24%. Besides, the “Efficacy in % found” value was 0% with Venturia inaequalis (0.25 ppm a.i.); 0% in the experiment with Venturia inaequalis (0.5 ppm a.i.); 8% in the experiment on Venturia inaequalis (1 ppm a.i.); 0% in the experiment with Botrytis cinerea (0.25 ppm a.i.); 15% in the experiment with Botrytis cinerea (0.5 ppm a.i.); 30% in the experiment on Botrytis cinerea (1 ppm a.i.).
For `CC1(C)CCC(Cc2ccc(Cl)cc2)C1(O)Cn1cncn1` (centres unmarked) [1.30, metconazole], the “Efficacy in % found” value in experiment [1] (25 ppm a.i.) was 93% and 80%; in experiment [1] (50 ppm a.i.), 93%; with Fusarium graminearum (50 ppm a.i.), 14%; with Leptosphaeria nodorum (25 ppm a.i.), 0%; in the experiment on Puccinia triticina (12.5 ppm a.i.), 0%; in the experiment on Puccinia triticina (25 ppm a.i.), 20%. Moreover, the “Efficacy in % found” value in the experiment with Puccinia triticina (50 ppm a.i.) is 10%; in the experiment with Septoria tritici (25 ppm a.i.), 17%; in the experiment with Septoria tritici (50 ppm a.i.), 33%.
In the case of `OC(Cc1ccccc1Cl)(Cn1nc[nH]c1=S)C1(Cl)CC1` (centres unmarked) [1.41, prothioconazole], the “Efficacy in % found” value in the experiment with Alternaria solani (0.5 ppm a.i.) was 15% and 8%; in the experiment on Alternaria solani (1 ppm a.i.) it was 15%; with Phakopsora pachyrhizi (0.25 ppm a.i.), 0%; with Phakopsora pachyrhizi (0.5 ppm a.i.) it was 0%; with Uromyces appendiculatus (0.25 ppm a.i.), 0%; in the experiment with Uromyces appendiculatus (1 ppm a.i.) it was 0%. Moreover, the “Efficacy in % found” value with Venturia inaequalis (1 ppm a.i.) is 0%.
Regarding `CC(C)(C)C(O)(CCc1ccc(Cl)cc1)Cn1cncn1` (centres unmarked) [1.47, tebuconazole], the “Efficacy in % found” value in the experiment with Alternaria solani (0.25 ppm a.i.) is 0%; with Alternaria solani (0.5 ppm a.i.) it was 8% and 0%; in the experiment with Phakopsora pachyrhizi (0.25 ppm a.i.), 0%; in the experiment with Phakopsora pachyrhizi (0.5 ppm a.i.), 0%; with Uromyces appendiculatus (0.25 ppm a.i.), 0%; in the experiment with Uromyces appendiculatus (0.5 ppm a.i.), 0%. Besides, in the experiment on Uromyces appendiculatus (1 ppm a.i.), the “Efficacy in % found” value is recorded as 0%.
In the case of `CCC1CC(C)(C)c2cccc(NC(=O)c3cccnc3C(F)F)c21` (centres unmarked) [(I-3), 2-(difluoromethyl)-N-(3-ethyl-1,1-dimethyl-2,3-dihydro-1H-inden-4-yl)nicotinamide], the “Efficacy in % found” value stood at 23% in the experiment with Alternaria solani (0.5 ppm a.i.); 0% in experiment [1] (25 ppm a.i.); 0% in the experiment on Fusarium graminearum (25 ppm a.i.); 0% in the experiment with Leptosphaeria nodorum (25 ppm a.i.); 14% in the experiment on Leptosphaeria nodorum (50 ppm a.i.); 43% in the experiment on Leptosphaeria nodorum (100 ppm a.i.). Also, the “Efficacy in % found” value was 83% in the experiment on Septoria tritici (100 ppm a.i.), 0% with Sphaerotheca fuliginea (0.5 ppm a.i.), 90% in the experiment on Uromyces appendiculatus (0.25 ppm a.i.) and 11% in the experiment with Venturia inaequalis (1 ppm a.i.).
Consider `CC[C@@H]1CC(C)(C)c2cccc(NC(=O)c3cccnc3C(F)F)c21` [(I-4), 2-(difluoromethyl)-N-[(3R)-3-ethyl-1,1-dimethyl-2,3-dihydro-1H-inden-4-yl]nicotinamide], for which the “Efficacy in % found” value in the experiment with Alternaria solani (1 ppm a.i.) is 40%; in [1] (50 ppm a.i.), 0%; in experiment [2] (12.5 ppm a.i.) it was 13%; in experiment [2] (25 ppm a.i.), 13%; in the experiment on Leptosphaeria nodorum (50 ppm a.i.) it was 0%; with Phakopsora pachyrhizi (0.25 ppm a.i.), 33% and 65%. For the same molecule, the “Efficacy in % found” value was 75% in the experiment with Phakopsora pachyrhizi (0.5 ppm a.i.), 75% with Septoria tritici (25 ppm a.i.), 75% in the experiment with Septoria tritici (50 ppm a.i.) and 16% in the experiment with Venturia inaequalis (0.5 ppm a.i.).
Take `CCCC1CC(C)(C)c2cccc(NC(=O)c3cccnc3C(F)F)c21` (centres unmarked) [(I-5), 2-(difluoromethyl)-N-(1,1-dimethyl-3-propyl-2,3-dihydro-1H-inden-4-yl)nicotinamide]: the “Efficacy in % found” value is 0% in the experiment on Fusarium graminearum (25 ppm a.i.); 29% with Fusarium graminearum (50 ppm a.i.); 38% in the experiment on Leptosphaeria nodorum (50 ppm a.i.); 38% in the experiment with Leptosphaeria nodorum (100 ppm a.i.); 43% and 60% in the experiment on Phakopsora pachyrhizi (0.25 ppm a.i.); 78% and 89% with Phakopsora pachyrhizi (0.5 ppm a.i.). Moreover, the “Efficacy in % found” value with Puccinia triticina (12.5 ppm a.i.) turned out to be 30%; in the experiment on Uromyces appendiculatus (0.5 ppm a.i.), 95%.
As for `CCC[C@@H]1CC(C)(C)c2cccc(NC(=O)c3cccnc3C(F)F)c21` [(I-6), 2-(difluoromethyl)-N-[(3R)-1,1-dimethyl-3-propyl-2,3-dihydro-1H-inden-4-yl]nicotinamide], the “Efficacy in % found” value in the experiment with Alternaria solani (0.25 ppm a.i.) was 16%; in the experiment with Alternaria solani (1 ppm a.i.) it was 27%; in experiment [1] (25 ppm a.i.), 40%; in the experiment on Leptosphaeria nodorum (50 ppm a.i.) it was 14%; in the experiment with Phakopsora pachyrhizi (0.25 ppm a.i.), 60% and 75%; with Septoria tritici (50 ppm a.i.), 75%.
Take cyproconazole [1.5]: the “Efficacy in % found” value is 0% with Leptosphaeria nodorum (12.5 ppm a.i.); 0% in the experiment on Leptosphaeria nodorum (50 ppm a.i.); 70% in the experiment with Puccinia triticina (25 ppm a.i.); 80% in the experiment with Puccinia triticina (50 ppm a.i.); 25% and 22% with Pyrenophora teres (25 ppm a.i.); 25% with Pyrenophora teres (50 ppm a.i.). Moreover, the “Efficacy in % found” value in the experiment with Pyrenophora teres (100 ppm a.i.) stood at 0%; in the experiment on Septoria tritici (50 ppm a.i.) it was 50%; with Septoria tritici (100 ppm a.i.), 17%.
With difenoconazole [1.7], the “Efficacy in % found” value in [1] (50 ppm a.i.) was 60% and 71% and 40%; in the experiment on Fusarium graminearum (50 ppm a.i.), 0%; in the experiment with Fusarium graminearum (100 ppm a.i.) it was 0%; in experiment [2] (12.5 ppm a.i.) it was 0%; with Leptosphaeria nodorum (25 ppm a.i.) it was 29%; in the experiment with Leptosphaeria nodorum (50 ppm a.i.), 29% and 43%. Also, the “Efficacy in % found” value with Leptosphaeria nodorum (100 ppm a.i.) was 13%; in the experiment with Puccinia triticina (12.5 ppm a.i.), 0%; in the experiment on Puccinia triticina (25 ppm a.i.), 20%; in the experiment with Puccinia triticina (50 ppm a.i.) it was 50%; in the experiment with Pyrenophora teres (12.5 ppm a.i.) it was 22%; in the experiment with Pyrenophora teres (50 ppm a.i.), 13%. In addition, the “Efficacy in % found” value in the experiment with Septoria tritici (50 ppm a.i.) was determined as 0%.
Consider propiconazole [1.40], for which the “Efficacy in % found” value is 43% and 80% in experiment [1] (25 ppm a.i.); 25% in the experiment on Leptosphaeria nodorum (100 ppm a.i.); 25% in the experiment with Puccinia triticina (25 ppm a.i.); 0% and 10% with Puccinia triticina (50 ppm a.i.); 22% in the experiment with Pyrenophora teres (25 ppm a.i.); 13% and 25% in the experiment on Pyrenophora teres (50 ppm a.i.). The “Efficacy in % found” value in the experiment with Pyrenophora teres (100 ppm a.i.) stood at 25%; in the experiment on Septoria tritici (25 ppm a.i.), 0%; in the experiment on Septoria tritici (50 ppm a.i.) it was 0%; in the experiment on Septoria tritici (100 ppm a.i.) it was 38%.
